The values that follow come from patent publication US10792283B2, “Quinoline analogs as phosphatidylinositol 3-kinase inhibitors” (HANGZHOU ZHENGXIANG PHARMACEUTICALS CO., LTD., priority 2016, dated 2020).

Series [1] deals with EHEB. In words: Cytotoxicity assay (CTG, 72 h) in EHEB. The series is classed as cell-based. The note with it: cell viability. How it is done: (§1) Cytotoxicity assay of compound 2 of Table 1 in selected cell lines
(§2) Day 0: cell seeding for all cell lines with the density of 10000 cells/80 μL/well.
(§3) Day 1, drug treatment: Prepare 3-fold serial dilutions of compound stock solutions with growth medium. Dispense 20 μL (5×) drμg solution in each well (duplicates for each concentration), the final DMSO concentration of each well treated with test compound and corresponding vehicle control is 0.1%. Incubate the plate for 72 h in specified incubator.
(§4) Day 4, plate reading: Thaw CTG solution and equilibrate to room temperature, add 100 μL of CTG per well, mix the contents for 2 min on the plate shaker, incubate for 10 min before recording the luminescence signal using Envision.

Series [2] relates to JVM-2. The series can be described thus: Cytotoxicity assay (CTG, 72 h) in JVM-2. It counts as cell-based. How it is done:
as §1, §2, §3, §4

Series [3] relates to SU-DHL-4. In words: Cytotoxicity assay (CTG, 72 h) in SU-DHL-4. It counts as cell-based. The procedure:
as §1, §2, §3, §4

In series [4] the test system is SU-DHL-5. In words: Cytotoxicity assay (CTG, 72 h) in SU-DHL-5. It counts as cell-based. The procedure: as §1, §2, §3, §4
Series [5] relates to SU-DHL-6. The series can be described thus: Cytotoxicity assay (CTG, 72 h) in SU-DHL-6. The series is classed as cell-based. How it is done:
as §1, §2, §3, §4

For series [6] the following is noted: cited from earlier work.
For series [7] the following is noted: cited from earlier work. The source holds these as a separate data set.
In series [8] the target is PI3Kδ (Homo sapiens (Human), UniProt O00329). The series can be described thus: Enzymatic activity of PI3K isoforms, TR-FRET assay. The series is classed as biochemical. Conditions: 10 μM ATP. The procedure: Enzymatic activity of the class I PI3K isoforms in the presence of the compounds of Table 1 above was measured using a time-resolved fluorescence resonance energy transfer (TR-FRET) assay.
The TR-FRET assay can monitor formation of the product 3,4,5-inositol triphosphate molecule (PIP3) as it competed with fluorescently labeled PIP3 for binding to the GRP-1 pleckstrin homology domain protein. An increase in […] product results in a decrease in TR-FRET signal as the labeled fluorophore is displaced from the GRP-1 protein binding site.
Control compound, PI-103, was tested in 10-dose IC50 with 3-fold serial dilution starting at 10 μm.
Data are normalized based on negative (DMSO) control. The alpha, beta, delta, and gamma IC50 values were calculated from the fit of the dose-response curves to a four parameter equation. IC50 are reported in units of nM.
IC50 values were obtained for all PI3K isoforms (α, β, δ, and γ), and Table 2 summarizes the IC50 data collected for PI3Kδ in this Example.

The nature of series [9]: Hepatocyte stability (parent drug disappearance in cryopreserved hepatocytes). It counts as in vitro ADME, human. Conditions: for half-life at 1 μM: human, cryopreserved hepatocytes. The procedure: The hepatocyte assay was used to evaluate the metabolic stability of test articles (TA) following incubation in cryopreserved hepatocytes by monitoring parent drug disappearance via […]. The TA with 1% final DMSO concentration was incubated with 0.5 million hepatocytes/ml at 1 μM substrate in duplicate. The incubation was carried out at 37° C. with 5% CO2 and saturating humidity. Samples were taken at 0, 1, 2, and 3 hours to monitor the disappearance of TA and a half-life (t ½) was determined. Table 2 below summarizes the t½ values (e.g. t ½) collected from this Example.

Series [10] is described as follows: PK profile after iv and PO dosing in rats. The series is classed as in vivo, SD rats. How it is done:
Compound 2 was dosed by both iv and PO in the rats.

Where [11] appears, read: Homo sapiens, JVM-2, cell viability.
Setting [12] is: Homo sapiens, SU-DHL-4, cell viability.
Setting [13] is: Homo sapiens, SU-DHL-5, cell viability.
Setting [14] is: Homo sapiens, SU-DHL-6, cell viability.
Where [15] appears, read: IV, data from idelalisib NDA filing.
[16] abbreviates: oral, data from idelalisib NDA filing.
The mark [17] stands for this setting: 1 μM substrate, 0.5 million hepatocytes/ml, 37° C., read-out: hepatocyte T1/2 (converted).
Setting [18] is: human hepatocytes, Table 3 comparison, read-out: T ½.
Setting [19] is: Sprague-Dawley, rat, in vivo, 1.32 mg/kg, iv, rats.
[20] abbreviates: Sprague-Dawley, rat, in vivo, po, 10 mg/kg, SD rats.

Where two headings read alike, the source gives them in different places.

Chain of PI3Kδ (O00329 whole entry, the tested form may be a part, canonical isoform): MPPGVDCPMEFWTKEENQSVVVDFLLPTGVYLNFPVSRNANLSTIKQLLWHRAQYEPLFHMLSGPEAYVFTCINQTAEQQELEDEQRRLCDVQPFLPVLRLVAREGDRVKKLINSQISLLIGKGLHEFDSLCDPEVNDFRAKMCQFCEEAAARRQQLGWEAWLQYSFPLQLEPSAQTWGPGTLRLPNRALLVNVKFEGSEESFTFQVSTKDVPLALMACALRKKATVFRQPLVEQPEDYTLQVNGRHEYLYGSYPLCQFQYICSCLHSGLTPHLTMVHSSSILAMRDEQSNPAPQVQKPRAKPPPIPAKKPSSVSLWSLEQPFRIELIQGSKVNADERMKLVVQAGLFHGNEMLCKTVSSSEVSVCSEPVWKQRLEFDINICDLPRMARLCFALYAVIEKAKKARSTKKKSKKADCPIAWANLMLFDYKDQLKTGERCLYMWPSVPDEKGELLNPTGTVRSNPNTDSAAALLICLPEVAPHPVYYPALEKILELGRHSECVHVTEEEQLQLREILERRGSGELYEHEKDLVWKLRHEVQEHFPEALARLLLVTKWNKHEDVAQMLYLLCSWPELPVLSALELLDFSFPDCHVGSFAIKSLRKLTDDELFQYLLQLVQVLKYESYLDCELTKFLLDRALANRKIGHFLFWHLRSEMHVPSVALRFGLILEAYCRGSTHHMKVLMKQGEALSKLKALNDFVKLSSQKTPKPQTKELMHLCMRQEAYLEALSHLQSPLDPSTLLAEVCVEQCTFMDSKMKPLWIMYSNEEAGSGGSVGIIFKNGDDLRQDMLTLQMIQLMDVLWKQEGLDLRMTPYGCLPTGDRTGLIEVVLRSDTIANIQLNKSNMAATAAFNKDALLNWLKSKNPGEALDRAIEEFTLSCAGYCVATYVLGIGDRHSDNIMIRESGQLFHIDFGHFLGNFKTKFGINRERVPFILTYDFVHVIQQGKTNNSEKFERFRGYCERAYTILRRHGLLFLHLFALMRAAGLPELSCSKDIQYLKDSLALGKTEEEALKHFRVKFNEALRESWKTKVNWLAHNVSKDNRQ
Chain of PI3Kδ (P27986 whole entry partner, the tested form may be a part, canonical isoform): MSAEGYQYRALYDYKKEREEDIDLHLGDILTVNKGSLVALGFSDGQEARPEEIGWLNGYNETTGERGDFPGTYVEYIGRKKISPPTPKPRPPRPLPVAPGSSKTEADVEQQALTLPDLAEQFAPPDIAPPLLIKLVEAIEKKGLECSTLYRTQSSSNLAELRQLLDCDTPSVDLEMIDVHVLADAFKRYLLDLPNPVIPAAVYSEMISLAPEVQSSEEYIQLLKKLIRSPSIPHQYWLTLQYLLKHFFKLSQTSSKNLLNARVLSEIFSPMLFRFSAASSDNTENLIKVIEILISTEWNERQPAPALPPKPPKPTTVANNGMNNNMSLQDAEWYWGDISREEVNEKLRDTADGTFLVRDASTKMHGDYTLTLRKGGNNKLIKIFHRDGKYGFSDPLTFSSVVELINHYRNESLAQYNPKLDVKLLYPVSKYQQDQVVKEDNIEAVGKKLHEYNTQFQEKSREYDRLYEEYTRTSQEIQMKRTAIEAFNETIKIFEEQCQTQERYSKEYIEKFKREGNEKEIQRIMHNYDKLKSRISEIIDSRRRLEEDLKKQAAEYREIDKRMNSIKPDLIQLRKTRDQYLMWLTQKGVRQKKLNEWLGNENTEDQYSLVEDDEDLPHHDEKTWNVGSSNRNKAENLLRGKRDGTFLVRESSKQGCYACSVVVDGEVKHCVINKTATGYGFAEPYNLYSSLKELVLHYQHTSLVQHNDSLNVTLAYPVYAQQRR

Consider `CC[C@H](Nc1ncnc2[nH]cnc12)c1nc2cccc(F)c2c(=O)n1-c1ccccc1` [Idelalisib, idelalisib], for which the concentration for half-maximal inhibition (IC50) in series [1] was found to be 0.506 µM; in series [2] (setting [11]), 1.43 µM; in series [3] (setting [12]), 0.198 µM; in series [4] (setting [13]), 1.68 µM; in series [5] (setting [14]), 0.13 µM. Moreover, the “AUCinf” value in [6] (setting [15]) was 1151 ± 407 ng·h/mL; in [6] (setting [16]), 422 ± 67 ng·h/mL. In addition, in series [6] (setting [15]), the “Cl” value is 478 ± 19 mL/min/kg. Also, the highest concentration (Cmax) was 1437 ± 220 ng/mL in series [6] (setting [15]) and 129 ± 49 ng/mL in series [6] (setting [16]). The “Tmax” value in [6] (setting [15]) is 0.08 h; in [6] (setting [16]), 3.00 h. The “VSS” value in series [6] (setting [15]) was 2.49 L/kg. Moreover, the “t1/2” value in series [6] (rat, in vivo, iv) is 1.89 h. For the same compound, the figures for the “Fatal and/or serious hepatotoxicity, % of patients” value in series [7] (combination trials) and in series [7] (monotherapy) were 11% and 18%, respectively.

Compound `C[C@H](Nc1nc(N)nc(N)c1C#N)c1cc2ccc(F)cc2nc1-c1cc(F)cc(F)c1` [Compound 3, (S)-2,4-Diamino-6-{1-[2-(3,5-difluoro-phenyl)-7-fluoro-quinolin-3-yl]-ethylamino}-pyrimidine-5-carbonitrile] displayed a half-maximal inhibitory concentration (IC50) in series [8] of 0.24 nM. Moreover, the half-life at 1 μM in [9] (setting [17]) is 17 h.

With `C[C@H](Nc1ncnc(N)c1C#N)c1cc2cccc(F)c2nc1-c1ccccc1S(C)(=O)=O` [F, reference compound], the half-life at 1 μM is 5.9 h in series [9] (setting [17]) and < 6 h in [9] (setting [18]).

With `C[C@H](Nc1nc(N)nc(N)c1C#N)c1cc2ccc(F)cc2nc1-c1ccccc1S(C)(=O)=O` [Compound 4, (S)-2,4-Diamino-6-{1-[7-fluoro-2-(2-methanesulfonyl-phenyl)-quinolin-3-yl]-ethylamino}-pyrimidine-5-carbonitrile], the IC50 in [8] came to 0.27 nM. Moreover, the half-life at 1 μM in series [9] (setting [17]) is 6 h. In series [9] (versus compound E), the “improved stability in human hepatocytes (longer half-life), fold” value is recorded as 1.3 ×.

In turn, `C[C@H](Nc1nc(N)nc(N)c1C#N)c1cc2ccc(F)cc2nc1-c1cccc(F)c1` [Compound 5, (S)-2,4-diamino-6-{1-[7-fluoro-2-(3-fluoro-phenyl)-quinolin-3-yl]-ethylamino}-pyrimidine-5-carbonitrile] returned an IC50 in series [8] of 0.14 nM. In addition, the half-life at 1 μM in [9] (setting [17]) is 20 h; in series [9] (setting [18]), > 12 h.

Consider `C[C@H](Nc1ncnc(N)c1C#N)c1cc2ccc(F)cc2nc1-c1ccccc1S(C)(=O)=O` [Compound E, reference compound], for which the half-life at 1 μM in [9] (setting [17]) is 4.8 h.

The compound `C[C@H](Nc1nc(N)nc(N)c1C#N)c1cc2cccc(Cl)c2nc1-c1ccccn1` [Compound 8, (S)-2,4-Diamino-6-[1-(8-chloro-2-pyridin-2-yl-quinolin-3-yl)-ethylamino]-pyrimidine-5-carbonitrile] had an IC50 in series [8] of 0.97 nM.

The compound `C[C@H](Nc1nc(N)nc(N)c1C#N)c1cc2cccc(F)c2nc1-c1ccccc1S(C)(=O)=O` [Compound 7, (S)-2,4-Diamino-6-{1-[8-fluoro-2-(2-methanesulfonyl-phenyl)-quinolin-3-yl]-ethylamino}-pyrimidine-5-carbonitrile] registered a half-inhibitory concentration (IC50) in series [8] of 2.1 nM. The results for the half-life at 1 μM in series [9] (setting [17]) and in series [9] (setting [18]) were 59 h and > 48 h, respectively.

As for `C[C@H](Nc1nc(N)nc(N)c1C#N)c1cc2ccc(F)cc2nc1-c1ccccn1` [Compound 2, (S)-2,4-Diamino-6-[1-(7-fluoro-2-pyridin-2-yl-quinolin-3-yl)-ethylamino]-pyrimidine-5-carbonitrile], the IC50 in series [8] is 0.086 nM; in series [1], 0.216 µM; in series [2] (setting [11]), 0.931 µM; in series [3] (setting [12]) it was 0.088 µM; in [4] (setting [13]), 0.493 µM; in series [5] (setting [14]) it was 0.035 µM. Besides, the half-life at 1 μM in [9] (setting [17]) was 53 h; in series [9] (setting [18]) it was > 48 h. In addition, the AUC(0-inf) in series [10] (setting [19]) turned out to be 4550 ng·h/mL; in series [10] (setting [20]) it was 29500 ng·h/mL. Further, the maximum concentration (Cmax) stood at 1090 ng/mL in series [10] (setting [19]) and 3170 ng/mL in series [10] (setting [20]). Further, the time to peak (Tmax) is 0.08 h in series [10] (setting [19]) and 2 h in series [10] (setting [20]). In series [10] (setting [19]), this compound registered a clearance of 4.6 mL/min/kg. Besides, the half-life in [10] (setting [19]) was 3.55 h; in series [10] (setting [20]), 3.12 h. In addition, the Vd in series [10] (Sprague-Dawley, rat, in vivo, 1.32 mg/kg, iv, rats, read-out: VSS) was 1.12 L/kg. Also, the bioavailability in [10] (setting [20]) worked out at 80%. Further, the AUCinf/Dose was found to be 3448 in series [10] (iv, rats) and 2949 in [10] (po, 10 mg/kg, SD rats). Moreover, the Cmax/Dose in [10] (iv, rats) is listed as 828; in series [10] (po, 10 mg/kg, SD rats), 317. For the same compound, the “Oral exposure corrected with dose (AUCinf/dose), fold higher than that of idelalisib” value in series [10] (oral dose 10 mg/kg, SD rats, versus idelalisib) is reported as 20 fold. In series [10] (po, 10 mg/kg, SD rats), the “Cl” value was determined as 4.6 mL/min/kg.

Turning to `N.N.[Cl][Pt][Cl]` [Cisplatin], the 50% inhibitory concentration (IC50) in series [1] is 2.59 µM; in [2] (cell viability), 0.749 µM; in series [3] (cell viability), 0.507 µM; in series [4] (cell viability), 0.28 µM; in series [5] (cell viability) it was 5.61 µM.

In the case of `C[C@H](Nc1ncnc(N)c1C#N)c1cc2ccc(F)cc2nc1-c1cccc(F)c1` [G, reference compound], the half-life at 1 μM is 1.2 h in [9] (setting [17]) and < 1.5 h in series [9] (setting [18]).

For `C[C@H](Nc1nc(N)nc(N)c1C#N)c1cc2ccc(F)cc2nc1-c1ccccc1` [Compound 1, (S)-2,4-diamino-6-[1-(7-fluoro-2-phenyl-quinolin-3-yl)-ethylamino]-pyrimidine-5-carbonitrile], the IC50 in [8] was determined as 0.043 nM. The half-life at 1 μM in series [9] (setting [17]) was 27 h. Moreover, in series [9] (versus compound D), the “improved stability in human hepatocytes (longer half-life), fold” value is recorded as 2.7 ×.

Turning to `C[C@H](Nc1ncnc(N)c1C#N)c1cc2ccc(F)cc2nc1-c1ccccc1` [D, reference compound], the half-life at 1 μM in series [9] (setting [17]) is 10 h.

With `C[C@H](Nc1nc(N)nc(N)c1C#N)c1cc2cccc(F)c2nc1-c1ccccn1` [Compound 6, (S)-2,4-Diamino-6-[1-(8-fluoro-2-pyridin-2-yl-quinolin-3-yl)-ethylamino]-pyrimidine-5-carbonitrile], the half-life at 1 μM in series [9] (setting [17]) was 9 h.

As to `C[C@H](Nc1ncnc(N)c1C#N)c1cc2ccc(F)cc2nc1-c1ccccn1` [H, reference compound], the half-life at 1 μM was 0.88 h in series [9] (setting [17]) and < 1 h in series [9] (setting [18]).

In general, IC50 refers to the concentration at which inhibition is half-maximal. Read a high IC50 as weaker potency. What is called Cmax is the highest concentration seen after dosing. One may read the Tmax as the time at which the peak concentration occurs. One may read the AUC(0-inf) as total exposure, with the tail of the curve extrapolated. By bioavailability is commonly meant dose-corrected exposure relative to a reference, in per cent. Low values mean little systemic uptake, high ones much systemic uptake.
